Patent publication US9302999B2, “Substituted triazoles as herbicides” (E. I. DU PONT DE NEMOURS AND COMPANY, priority 2012, dated 2016)

How the values were obtained:
Type in all cases: in vivo
[1] = system: corn (Zea mays); test: Test C pre-/postemergence: corn
Summary of the method: (§1)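 Preemergence on seeds in loam/sand, postemergence on 2–18 cm (1–4-leaf) plants in peat-based medium; compounds in non-phytotoxic solvent with surfactant. After 13–15 days in greenhouse, visual rating versus controls, 0 (no effect) to 100 (complete control).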

[2] = system: barnyardgrass (Echinochloa crus-galli); test: Test B flooded paddy: barnyardgrass; conditions: Flood; 250 g ai/ha; applied to paddy water at 2-leaf stage; visually evaluated after 13 to 15 days
Summary of the method: (§2)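 Paddy-water application: seedlings at 2-leaf stage, flood depth 3 cm maintained for the test duration. Evaluation after 13–15 days in the greenhouse by eye relative to controls; 0–100 scale.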

[3] = system: morningglory (Ipomoea spp.); test: Test A pre-/postemergence: morningglory; conditions: for Morningglory plant response rating: visual rating on 0 to 100 scale (0 no effect, 100 complete control), approximately ten days
Summary of the method: (§3)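 Each species received preemergence soil-directed spraying and, at the same time, postemergence treatment of seedlings 2–10 cm tall. Formulation: non-phytotoxic solvent mixture including surfactant. Response assessed visually about ten days on, relative to untreated controls, 0–100 scale.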

[4] = system: barnyardgrass (Echinochloa crus-galli); test: Test A pre-/postemergence: barnyardgrass
Summary of the method: as §3

[5] = system: chickweed (common chickweed, Stellaria media); test: Test C postemergence: chickweed
Summary of the method: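 Pot-grown plants in peat/vermiculite medium sprayed postemergence at 2–18 cm height (1- to 4-leaf stage). Kept in greenhouse 13 to 15 days, then visually rated against untreated controls on a 0–100 scale (0 = no effect, 100 = complete control).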

[6] = system: soybean (Glycine max); test: Test C pre-/postemergence: soybean
Summary of the method: as §1

[7] = system: foxtail, giant (giant foxtail, Setaria faberii); test: Test C pre-/postemergence: foxtail, giant
Summary of the method: as §1

[8] = system: large crabgrass (Digitaria sanguinalis); test: Test C pre-/postemergence: large crabgrass
Summary of the method: as §1

[9] = system: ducksalad (Heteranthera limosa); test: Test B flooded paddy: ducksalad; conditions: Flood; 250 g ai/ha; applied to paddy water at 2-leaf stage; visually evaluated after 13 to 15 days
Summary of the method: as §2

[10] = system: velvetleaf (Abutilon theophrasti); test: Test A pre-/postemergence: velvetleaf; conditions: for Velvetleaf plant response rating: visual rating on 0 to 100 scale (0 no effect, 100 complete control), approximately ten days
Summary of the method: as §3

[11] = system: kochia (Kochia scoparia); test: Test C pre-/postemergence: kochia
Summary of the method: as §1

[12] = Postemergence, 16 g ai/ha, scale 0 to 100, 0 no effect, 100 complete control
[13] = Postemergence, 31 g ai/ha, scale 0 to 100 (0 no effect, 100 complete control)
[14] = Postemergence, 62 g ai/ha, scale 0 to 100 (0 no effect, 100 complete control)
[15] = Postemergence, 125 g ai/ha, scale 0 to 100, 0 no effect, 100 complete control
[16] = Preemergence, 16 g ai/ha, scale 0 (no effect) to 100 (complete control)
[17] = Preemergence, 31 g ai/ha, scale of 0 to 100, 0 is no effect, 100 is complete control
[18] = Preemergence, 62 g ai/ha, scale of 0 to 100, 0 is no effect, 100 is complete control
[19] = Preemergence, 125 g ai/ha, scale 0 to 100, 0 no effect, 100 complete control
[20] = Postemergence, 125 g ai/ha, 0 to 100 scale, 0 is no effect, 100 is complete control
[21] = Preemergence, 125 g ai/ha, 0 to 100 scale where 0 is no effect and 100 is complete control
[22] = Preemergence, 500 g ai/ha, 0 to 100 scale (0 no effect, 100 complete control)
[23] = Postemergence, 500 g ai/ha, visual rating on 0 to 100 scale (0 no effect, 100 complete control), approximately ten days
[24] = 31 g ai/ha, scale 0 to 100 (0 no effect, 100 complete control)
[25] = 62 g ai/ha, scale 0 to 100 (0 no effect, 100 complete control)
[26] = 125 g ai/ha, scale 0 to 100, 0 no effect, 100 complete control
[27] = Postemergence, 250 g ai/ha, scale 0 to 100
[28] = Preemergence, 250 g ai/ha, scale 0 to 100, 0 no effect, 100 complete control

## FCc1nn(-c2ccc(F)cc2)nc1Oc1ccnc(C(F)(F)F)c1 [Compound 160]
[1]; [12]
  Plant response rating, Corn: 15
[1]; [13]
  Plant response rating, Corn: 15
[1]; [14]
  Plant response rating, Corn: 20
[1]; [15]
  Plant response rating, Corn: 25
[1]; [16]
  Plant response rating, Corn: 5
[1]; [17]
  Plant response rating, Corn: 5
[1]; [18]
  Plant response rating, Corn: 5
[1]; [19]
  Plant response rating, Corn: 5
[2]
  Plant response rating, Barnyardgrass (0 to 100 scale, 0 is no effect, 100 is complete control): 65
[3]; [20]
  Plant response rating, Morningglory: 90
[3]; Postemergence, 500 g ai/ha
  Morningglory plant response rating: 90
[3]; [21]
  Plant response rating, Morningglory: 40
[3]; [22]
  Plant response rating, Morningglory: 70
[4]; [20]
  Plant response rating, Barnyardgrass: 70
[4]; [23]
  Barnyardgrass plant response rating: 90
[4]; [21]
  Plant response rating, Barnyardgrass: 100
[4]; [22]
  Plant response rating, Barnyardgrass: 100
[5]; 16 g ai/ha, scale 0 to 100, 0 no effect, 100 complete control
  Plant response rating, Chickweed: 70
[5]; [24]
  Plant response rating, Chickweed: 90
[5]; [25]
  Plant response rating, Chickweed: 95
[5]; [26]
  Plant response rating, Chickweed: 98
[6]; [12]
  Plant response rating, Soybean: 15
[6]; [13]
  Plant response rating, Soybean: 25
[6]; [14]
  Plant response rating, Soybean: 25
[6]; [15]
  Plant response rating, Soybean: 30
[6]; [16]
  Plant response rating, Soybean: 0
[6]; [17]
  Plant response rating, Soybean: 5
[6]; [18]
  Plant response rating, Soybean: 20
[6]; [19]
  Plant response rating, Soybean: 20
[7]; [12]
  Plant response rating, Foxtail, Giant: 15
[7]; [13]
  Plant response rating, Foxtail, Giant: 20
[7]; [15]
  Plant response rating, Foxtail, Giant: 75
[7]; [16]
  Plant response rating, Foxtail, Giant: 80
[7]; [17]
  Plant response rating, Foxtail, Giant: 100
[7]; [18]
  Plant response rating, Foxtail, Giant: 100
[7]; [19]
  Plant response rating, Foxtail, Giant: 100
[8]; [12]
  Plant response rating, Crabgrass, Large: 20
[8]; [13]
  Plant response rating, Crabgrass, Large: 25
[8]; [14]
  Plant response rating, Crabgrass, Large: 35
[8]; [15]
  Plant response rating, Crabgrass, Large: 40
[8]; [16]
  Plant response rating, Crabgrass, Large: 90
[8]; [17]
  Plant response rating, Crabgrass, Large: 100
[8]; [18]
  Plant response rating, Crabgrass, Large: 100
[8]; [19]
  Plant response rating, Crabgrass, Large: 100
[9]
  Plant response rating, Ducksalad (0 to 100 scale, 0 is no effect, 100 is complete control): 90
[10]; [20]
  Plant response rating, Velvetleaf: 90
[10]; Postemergence, 500 g ai/ha
  Velvetleaf plant response rating: 100
[10]; [21]
  Plant response rating, Velvetleaf: 50
[10]; [22]
  Plant response rating, Velvetleaf: 70
[11]; [12]
  Plant response rating, Kochia: 90
[11]; [13]
  Plant response rating, Kochia: 90
[11]; [14]
  Plant response rating, Kochia: 95
[11]; [15]
  Plant response rating, Kochia: 95

## CCc1nn(-c2ccc(F)cc2)nc1Cc1ccnc(C(F)(F)F)c1 [Compound 154]
[1]; [13]
  Plant response rating, Corn: 20
[1]; [14]
  Plant response rating, Corn: 20
[1]; [27]
  Plant response rating, Corn: 20
[1]; [17]
  Plant response rating, Corn: 0
[1]; [18]
  Plant response rating, Corn: 5
[1]; [19]
  Plant response rating, Corn: 10
[1]; [28]
  Plant response rating, Corn: 15
[2]
  Plant response rating, Barnyardgrass (0 to 100 scale, 0 is no effect, 100 is complete control): 60
[3]; [20]
  Plant response rating, Morningglory: 80
[3]; Postemergence, 500 g ai/ha
  Morningglory plant response rating: 100
[3]; [21]
  Plant response rating, Morningglory: 20
[3]; [22]
  Plant response rating, Morningglory: 80
[4]; [20]
  Plant response rating, Barnyardgrass: 90
[4]; [23]
  Barnyardgrass plant response rating: 90
[4]; [21]
  Plant response rating, Barnyardgrass: 100
[4]; [22]
  Plant response rating, Barnyardgrass: 100
[5]; [24]
  Plant response rating, Chickweed: 85
[5]; [25]
  Plant response rating, Chickweed: 85
[5]; [26]
  Plant response rating, Chickweed: 95
[5]; 250 g ai/ha, scale 0 to 100
  Plant response rating, Chickweed: 95
[6]; [13]
  Plant response rating, Soybean: 45
[6]; [14]
  Plant response rating, Soybean: 60
[6]; [15]
  Plant response rating, Soybean: 65
[6]; [27]
  Plant response rating, Soybean: 75
[6]; [17]
  Plant response rating, Soybean: 0
[6]; [18]
  Plant response rating, Soybean: 0
[6]; [19]
  Plant response rating, Soybean: 15
[6]; [28]
  Plant response rating, Soybean: 15
[7]; [13]
  Plant response rating, Foxtail, Giant: 20
[7]; [14]
  Plant response rating, Foxtail, Giant: 20
[7]; [15]
  Plant response rating, Foxtail, Giant: 55
[7]; [27]
  Plant response rating, Foxtail, Giant: 75
[7]; [17]
  Plant response rating, Foxtail, Giant: 100
[7]; [18]
  Plant response rating, Foxtail, Giant: 100
[7]; [19]
  Plant response rating, Foxtail, Giant: 100
[7]; [28]
  Plant response rating, Foxtail, Giant: 100
[8]; [13]
  Plant response rating, Crabgrass, Large: 20
[8]; [14]
  Plant response rating, Crabgrass, Large: 30
[8]; [15]
  Plant response rating, Crabgrass, Large: 45
[8]; [27]
  Plant response rating, Crabgrass, Large: 70
[8]; [17]
  Plant response rating, Crabgrass, Large: 90
[8]; [18]
  Plant response rating, Crabgrass, Large: 100
[8]; [19]
  Plant response rating, Crabgrass, Large: 100
[8]; [28]
  Plant response rating, Crabgrass, Large: 100
[9]
  Plant response rating, Ducksalad (0 to 100 scale, 0 is no effect, 100 is complete control): 80
[10]; [20]
  Plant response rating, Velvetleaf: 100
[10]; Postemergence, 500 g ai/ha
  Velvetleaf plant response rating: 100
[10]; [21]
  Plant response rating, Velvetleaf: 30
[10]; [22]
  Plant response rating, Velvetleaf: 70
[11]; [13]
  Plant response rating, Kochia: 90
[11]; [14]
  Plant response rating, Kochia: 90
[11]; [15]
  Plant response rating, Kochia: 90
[11]; [27]
  Plant response rating, Kochia: 95

## COc1nn(-c2ccc(C(F)(F)F)cc2)nc1Cc1ccnc(C(F)F)c1 [Compound 138]
[1]; [17]
  Plant response rating, Corn: 20
[1]; [18]
  Plant response rating, Corn: 30
[1]; [19]
  Plant response rating, Corn: 40
[1]; [28]
  Plant response rating, Corn: 55
[2]
  Plant response rating, Barnyardgrass (0 to 100 scale, 0 is no effect, 100 is complete control): 80
[3]; [20]
  Plant response rating, Morningglory: 100
[3]; Postemergence, 500 g ai/ha
  Morningglory plant response rating: 100
[3]; [21]
  Plant response rating, Morningglory: 70
[3]; [22]
  Plant response rating, Morningglory: 90
[4]; [20]
  Barnyardgrass plant response rating: 90
[4]; [23]
  Barnyardgrass plant response rating: 90
[4]; [21]
  Plant response rating, Barnyardgrass: 90
[4]; [22]
  Plant response rating, Barnyardgrass: 100
[5]; [25]
  Plant response rating, Chickweed: 80
[5]; [26]
  Plant response rating, Chickweed: 95
[5]; 250 g ai/ha, scale 0 to 100
  Plant response rating, Chickweed: 98
[6]; [13]
  Plant response rating, Soybean: 55
[6]; [14]
  Plant response rating, Soybean: 70
[6]; [15]
  Plant response rating, Soybean: 80
[6]; [27]
  Plant response rating, Soybean: 80
[6]; [17]
  Plant response rating, Soybean: 5
[6]; [18]
  Plant response rating, Soybean: 20
[6]; [28]
  Plant response rating, Soybean: 30
[7]; [13]
  Plant response rating, Foxtail, Giant: 20
[7]; [14]
  Plant response rating, Foxtail, Giant: 55
[7]; [15]
  Plant response rating, Foxtail, Giant: 55
[7]; [27]
  Plant response rating, Foxtail, Giant: 95
[7]; [17]
  Plant response rating, Foxtail, Giant: 98
[7]; [18]
  Plant response rating, Foxtail, Giant: 100
[7]; [19]
  Plant response rating, Foxtail, Giant: 100
[7]; [28]
  Plant response rating, Foxtail, Giant: 100
[8]; [13]
  Plant response rating, Crabgrass, Large: 45
[8]; [14]
  Plant response rating, Crabgrass, Large: 50
[8]; [15]
  Plant response rating, Crabgrass, Large: 55
[8]; [27]
  Plant response rating, Crabgrass, Large: 95
[8]; [17]
  Plant response rating, Crabgrass, Large: 98
[8]; [18]
  Plant response rating, Crabgrass, Large: 100
[8]; [19]
  Plant response rating, Crabgrass, Large: 100
[8]; [28]
  Plant response rating, Crabgrass, Large: 100
[9]
  Plant response rating, Ducksalad (0 to 100 scale, 0 is no effect, 100 is complete control): 90
[10]; [20]
  Plant response rating, Velvetleaf: 100
[10]; Postemergence, 500 g ai/ha
  Velvetleaf plant response rating: 100
[10]; [21]
  Plant response rating, Velvetleaf: 70
[10]; [22]
  Plant response rating, Velvetleaf: 100
[11]; [13]
  Plant response rating, Kochia: 95
[11]; [14]
  Plant response rating, Kochia: 95
[11]; [15]
  Plant response rating, Kochia: 98
[11]; [27]
  Plant response rating, Kochia: 98
[11]; [17]
  Plant response rating, Kochia: 55
[11]; [18]
  Plant response rating, Kochia: 65
[11]; [19]
  Plant response rating, Kochia: 85
[11]; [28]
  Plant response rating, Kochia: 90
